Assay results reported in patent EP1025114B1, “3'-N-MODIFIED 6-O-SUBSTITUTED ERYTHROMYCIN KETOLIDE DERIVATIVES HAVING ANTIBACTERIAL ACTIVITY” (priority 1997, dated 1999).

What was measured:
Test in all cases: In vitro antibacterial activity, agar dilution MIC
Assay type in all cases: cell-based
[1] = test system: Streptococcus Pheumoniae 5649; conditions: Streptococcus Pheumoniae 5649 (organism code ZZA); BHI agar, 35-37 °C, 20 to 24 hours; unit assumed
How it was run: (§1)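 BHI agar dilution; 12 successive concentrations; Steers replicator inoculum 1:100, or 1:10 for slow-growing strains (e.g. Streptococcus). Plates inspected visually; MIC = lowest drug level with no growth, faint haze or sparse colonies vs compound-free control. Same-class reference antibiotic run each test.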

Escherichia coli JUHL = Escherichia coli JUHL (organism code QQ); BHI agar, 35-37 °C, 20 to 24 hours; unit assumed
How it was run: as §1

[2] = test system: Micrococcus luteus ATCC 9341; conditions: Micrococcus luteus ATCC 9341 (organism code OO); BHI agar, 35-37 °C, 20 to 24 hours; unit assumed
How it was run: as §1

[3] = test system: Staphylococcus aureus A5177; conditions: Staphylococcus aureus A5177 (organism code BB); BHI agar, 35-37 °C, 20 to 24 hours; unit assumed
How it was run: as §1

[4] = test system: Haemophilis Influenzae DILL AMP R; conditions: Haemophilis Influenzae DILL AMP R (organism code WW); BHI agar, 35-37 °C, 20 to 24 hours; unit assumed
How it was run: as §1

[5] = test system: Staphylococcus aureus CMX 642A; conditions: Staphylococcus aureus CMX 642A (organism code DD); BHI agar, 35-37 °C, 20 to 24 hours; unit assumed
How it was run: as §1

[6] = test system: Streptococcus bovis A-5169; conditions: Streptococcus bovis A-5169 (organism code JJ); BHI agar, 35-37 °C, 20 to 24 hours; unit assumed
How it was run: as §1

[7] = test system: Staphylococcus aureus ATCC 6538P; conditions: Staphylococcus aureus ATCC 6538P (organism code AA); BHI agar, 35-37 °C, 20 to 24 hours; unit assumed
How it was run: as §1

Escherichia coli DC-2 = Escherichia coli DC-2 (organism code SS); BHI agar, 35-37 °C, 20 to 24 hours; unit assumed
How it was run: as §1

[8] = test system: Streptococcus pyogenes PIU 2548; conditions: Streptococcus pyogenes PIU 2548 (organism code NN); BHI agar, 35-37 °C, 20 to 24 hours; unit assumed
How it was run: as §1

[9] = test system: Mycobacterium smegmatis ATCC 114; conditions: Mycobacterium smegmatis ATCC 114 (organism code UU); BHI agar, 35-37 °C, 20 to 24 hours; unit assumed
How it was run: as §1

[10] = test system: Micrococcus luteus ATCC 4698; conditions: Micrococcus luteus ATCC 4698 (organism code PP); BHI agar, 35-37 °C, 20 to 24 hours; unit assumed
How it was run: as §1

[11] = test system: Streptococcus agalactiae CMX 508; conditions: Streptococcus agalactiae CMX 508 (organism code KK); BHI agar, 35-37 °C, 20 to 24 hours; unit assumed
How it was run: as §1

[12] = test system: Staphylococcus aureus CMX 553; conditions: Staphylococcus aureus CMX 553 (organism code FF); BHI agar, 35-37 °C, 20 to 24 hours; unit assumed
How it was run: as §1

Candida albicans CCH 442 = Candida albicans CCH 442 (organism code TT); BHI agar, 35-37 °C, 20 to 24 hours; unit assumed
How it was run: as §1

[13] = test system: Staphylococcus epidermidis 3519; conditions: Staphylococcus epidermidis 3519 (organism code HH); BHI agar, 35-37 °C, 20 to 24 hours; unit assumed
How it was run: as §1

[14] = test system: Nocardia Asteroides ATCC9970; conditions: Nocardia Asteroides ATCC9970 (organism code VV); BHI agar, 35-37 °C, 20 to 24 hours; unit assumed
How it was run: as §1

[15] = test system: Streptococcus pyogenes EES61; conditions: Streptococcus pyogenes EES61 (organism code LL); BHI agar, 35-37 °C, 20 to 24 hours; unit assumed
How it was run: as §1

[16] = test system: Streptococcus Pheumoniae ATCC6303; conditions: Streptococcus Pheumoniae ATCC6303 (organism code XX); BHI agar, 35-37 °C, 20 to 24 hours; unit assumed
How it was run: as §1

[17] = test system: Staphylococcus aureus A-5278; conditions: Staphylococcus aureus A-5278 (organism code CC); BHI agar, 35-37 °C, 20 to 24 hours; unit assumed
How it was run: as §1

[18] = test system: Streptococcus Pheumoniae 5979; conditions: Streptococcus Pheumoniae 5979 (organism code ZZ); BHI agar, 35-37 °C, 20 to 24 hours; unit assumed
How it was run: as §1

Escherichia coli SS = Escherichia coli SS (organism code RR); BHI agar, 35-37 °C, 20 to 24 hours; unit assumed
How it was run: as §1

[19] = test system: Enterococcus faecium ATCC 8043; conditions: Enterococcus faecium ATCC 8043 (organism code II); BHI agar, 35-37 °C, 20 to 24 hours; unit assumed
How it was run: as §1

[20] = test system: Staphylococcus aureus 1775; conditions: Staphylococcus aureus 1775 (organism code GG); BHI agar, 35-37 °C, 20 to 24 hours; unit assumed
How it was run: as §1

[21] = test system: Streptococcus pyogenes 930; conditions: Streptococcus pyogenes 930 (organism code MM); BHI agar, 35-37 °C, 20 to 24 hours; unit assumed
How it was run: as §1

[22] = test system: Streptococcus Pheumoniae GYR 1171; conditions: Streptococcus Pheumoniae GYR 1171 (organism code YY); BHI agar, 35-37 °C, 20 to 24 hours; unit assumed
How it was run: as §1

[23] = test system: Staphylococcus aureus NCTC10649M; conditions: Staphylococcus aureus NCTC10649M (organism code EE); BHI agar, 35-37 °C, 20 to 24 hours; unit assumed
How it was run: as §1

Structure (SMILES): CCCN(C)[C@H]1C[C@@H](C)O[C@@H](O[C@@H]2[C@@H](C)C(=O)[C@@H](C)C(=O)O[C@H](CC)[C@@]3(C)OC(=O)N[C@@H]3[C@@H](C)C(=O)[C@H](C)C[C@@]2(C)OCC=Cc2cnc3ccccc3c2)[C@@H]1O [Example 16, Compound of Formula (II); R is -CH2CH=CH-(3-quinolyl), R^p is H, W is absent, R^w is H, R^1 is CH2CH2CH3, R^2 is CH3]
- MIC [1]: 0.5 mg/L
- MIC (Escherichia coli JUHL): > 100 mg/L
- MIC [2]: 0.02 mg/L
- MIC [3]: 0.39 mg/L
- MIC [4]: 8 mg/L
- MIC [5]: 0.39 mg/L
- MIC [6]: 0.01 mg/L
- MIC [7]: 0.39 mg/L
- MIC (Escherichia coli DC-2): > 100 mg/L
- MIC [8]: 0.1 mg/L
- MIC [9]: 1.56 mg/L
- MIC [10]: 0.39 mg/L
- MIC [11]: 0.01 mg/L
- MIC [12]: 0.39 mg/L
- MIC (Candida albicans CCH 442): > 100 mg/L
- MIC [13]: 0.39 mg/L
- MIC [14]: 0.1 mg/L
- MIC [15]: 0.01 mg/L
- MIC [16]: 0.03 mg/L
- MIC [17]: > 100 mg/L
- MIC [18]: 128 mg/L
- MIC (Escherichia coli SS): 0.2 mg/L
- MIC [19]: 0.05 mg/L
- MIC [20]: > 100 mg/L
- MIC [21]: 12.5 mg/L
- MIC [22]: 0.03 mg/L
- MIC [23]: 0.39 mg/L

Structure (SMILES): CC[C@H]1OC(=O)[C@H](C)C(=O)[C@H](C)[C@@H](O[C@@H]2O[C@H](C)C[C@H](N(C)CC=Cc3ccccc3)[C@H]2O)[C@](C)(OCC=Cc2cnc3ccccc3c2)C[C@@H](C)C(=O)[C@H](C)[C@H]2NC(=O)O[C@@]21C [Example 17, Compound of Formula (II); R is -CH2CH=CH-(3-quinolyl), R^p is H, W is absent, R^w is H, R^1 is CH2CH=CHC6H5, R^2 is CH3]
- MIC [1]: 0.25 mg/L
- MIC (Escherichia coli JUHL): > 100 mg/L
- MIC [2]: 0.05 mg/L
- MIC [3]: 0.39 mg/L
- MIC [4]: 8 mg/L
- MIC [5]: 0.39 mg/L
- MIC [6]: 0.05 mg/L
- MIC [7]: 0.39 mg/L
- MIC (Escherichia coli DC-2): > 100 mg/L
- MIC [8]: 0.39 mg/L
- MIC [9]: 0.39 mg/L
- MIC [10]: 0.39 mg/L
- MIC [11]: 0.05 mg/L
- MIC [12]: 0.39 mg/L
- MIC (Candida albicans CCH 442): > 100 mg/L
- MIC [13]: 0.39 mg/L
- MIC [14]: 0.2 mg/L
- MIC [15]: 0.2 mg/L
- MIC [16]: ≤ 0.015 mg/L
- MIC [17]: > 100 mg/L
- MIC [18]: 16 mg/L
- MIC (Escherichia coli SS): 1.56 mg/L
- MIC [19]: 0.1 mg/L
- MIC [20]: > 100 mg/L
- MIC [21]: 12.5 mg/L
- MIC [22]: ≤ 0.015 mg/L
- MIC [23]: 0.78 mg/L
